Laboratory results published in ChEMBL document CHEMBL5370585, “Exploration and Biological Evaluation of 1,3-Diamino-7H-pyrrol[3,2-f]quinazoline Derivatives as Dihydrofolate Reductase Inhibitors” (J Med Chem, 2023).
Values after ≈ are worked out from the molar mass of the structure shown.

Tests used:
Staphylococcus aureus [1] = test: Antibacterial activity against Staphylococcus aureus ATCC 29213 incubated for 16 to 18 hrs by CLSI based broth dilution method; assay type: functional; settings: time 16-18 hrs
Staphylococcus aureus [2] = test: Antibacterial activity against methicillin-resistant Staphylococcus aureus ATCC 43300 incubated for 16 to 18 hrs by CLSI based broth dilution method; assay type: functional; settings: time 16-18 hrs
[3] = test system: Staphylococcus epidermidis; test: Antibacterial activity against Staphylococcus epidermidis ATCC 12228 incubated for 16 to 18 hrs by CLSI based broth dilution method; assay type: functional; settings: time 16-18 hrs
Acinetobacter baumannii = test: Antibacterial activity against Acinetobacter baumannii ATCC 19606 incubated for 16 to 18 hrs by CLSI based broth dilution method; assay type: functional; settings: time 16-18 hrs
Enterococcus faecalis = test: Antibacterial activity against Enterococcus faecalis ATCC 29212 incubated for 16 to 18 hrs by CLSI based broth dilution method; assay type: functional; settings: time 16-18 hrs
Escherichia coli = test: Antibacterial activity against Escherichia coli ATCC 25922 incubated for 16 to 18 hrs by CLSI based broth dilution method; assay type: functional; settings: time 16-18 hrs
[4] = biological target: T1, Dihydrofolate reductase (Homo sapiens) (UniProt P00374); test: Inhibition of human DHFR at 1 uM incubated for 10 mins in presence of NADPH by colorimetry based analysis relative to control
T1 sequence (whole entry): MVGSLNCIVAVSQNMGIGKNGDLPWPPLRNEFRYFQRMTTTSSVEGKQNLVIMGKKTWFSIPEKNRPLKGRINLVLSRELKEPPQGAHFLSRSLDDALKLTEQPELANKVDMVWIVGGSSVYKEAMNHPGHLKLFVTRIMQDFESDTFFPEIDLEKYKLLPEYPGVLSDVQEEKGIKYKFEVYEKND

MCF7 = test: Cytotoxicity against human MCF7 cells measured after 72 hrs by MTT assay; assay type: functional, cell-based; settings: MCF7, 72 h
HGC-27 = test: Cytotoxicity against human HGC-27 cells measured after 72 hrs by MTT assay; assay type: functional, cell-based; settings: HGC-27, 72 h
HCT-116 = test: Cytotoxicity against human HCT-116 cells measured after 72 hrs by MTT assay; assay type: functional, cell-based; settings: HCT-116, 72 h
HepG2 = test: Cytotoxicity against human HepG2 cells measured after 72 hrs by MTT assay; assay type: functional, cell-based; settings: HepG2, 72 h
EMT6 [5] = test: Antitumor activity against mouse EMT6 cells xenografted in ip dosed BALB/c mouse model assessed as delay in tumor progression administered every 3 days for 14 consecutive days; assay type: functional, organism-based; settings: time 14.0 day
[6] = Toxicity in BALB/c mouse xenografted with mouse EMT6 cells at 2.5 mg/kg, ip administered every 3 days for 14 consecutive days; assay type: organism-based; settings: in vivo, 336 h, time 14 day
[7] = Toxicity in BALB/c mouse xenografted with mouse EMT6 cells assessed as effect on body weight at 2.5 mg/kg, ip measured on day 1 (reference value: 18.5 +/-0.5g); assay type: organism-based; settings: in vivo, 24 h, time 1 day
[8] = Toxicity in BALB/c mouse xenografted with mouse EMT6 cells assessed as effect on body weight at 5 mg/kg, ip measured on day 1 (reference value: 18.5 +/-0.5g); assay type: organism-based; settings: in vivo, 24 h, time 1 day
[9] = Toxicity in BALB/c mouse xenografted with mouse EMT6 cells assessed as effect on body weight at 2.5 mg/kg, ip measured on day 14 (reference value: 21.6 +/-0.6g); assay type: organism-based; settings: in vivo, 336 h, time 14 day
[10] = Toxicity in BALB/c mouse xenografted with mouse EMT6 cells assessed as effect on body weight at 5 mg/kg, ip measured on day 14 (reference value: 21.6 +/-0.6g); assay type: organism-based; settings: in vivo, 336 h, time 14 day
EMT6 [11] = test: Antitumor activity against mouse EMT6 cells xenografted in BALB/c mouse model assessed as tumor weight at 2.5 mg/kg,ip administered every 3 days for 14 consecutive days (reference value: 1.53 +/-0.26g); assay type: functional; settings: time 14 day
EMT6 [12] = test: Antitumor activity against mouse EMT6 cells xenografted in BALB/c mouse model assessed as tumor weight at 5 mg/kg,ip administered every 3 days for 14 consecutive days (reference value: 1.53 +/-0.26g); assay type: functional; settings: time 14 day
EMT6 [13] = test: Antitumor activity against mouse EMT6 cells xenografted in BALB/c mouse model assessed as tumor growth inhibition at 2.5 mg/kg,ip administered every 3 days for 14 consecutive days relative to control; assay type: functional; parameters: scale not given: the % may be the effect or the level left; settings: time 14 day
EMT6 [14] = test: Antitumor activity against mouse EMT6 cells xenografted in BALB/c mouse model assessed as tumor growth inhibition at 5 mg/kg,ip administered every 3 days for 14 consecutive days relative to control; assay type: functional; parameters: scale not given: the % may be the effect or the level left; settings: time 14 day
[15] = Metabolic stability in mouse liver microsomes assessed as half life at 1 uM measured upto 60 mins in presence of NADPH by LC-MS/MS analysis; assay type: ADME, Microsome
[16] = Metabolic stability in mouse liver microsomes assessed as intrinsic clearance at 1 uM measured upto 60 mins in presence of NADPH by LC-MS/MS analysis; assay type: ADME, Microsome; settings: read-out: CLH
[17] = Metabolic stability in mouse liver microsomes assessed as hepatic clearance at 1 uM measured upto 60 mins in presence of NADPH by LC-MS/MS analysis; assay type: ADME, Microsome; settings: 1 h
[18] = Stability in mouse plasma assessed as parent compound remaining at 1 ug/ml measured after 10 mins by LC-MS/MS analysis; assay type: ADME, cell-free; settings: at 1 µg/mL, read-out: Stability
[19] = Stability in mouse plasma assessed as parent compound remaining at 1 ug/ml measured after 20 mins by LC-MS/MS analysis; assay type: ADME, cell-free; settings: at 1 µg/mL, read-out: Stability
[20] = Stability in mouse plasma assessed as parent compound remaining at 1 ug/ml measured after 30 mins by LC-MS/MS analysis; assay type: ADME, cell-free; settings: at 1 µg/mL, read-out: Stability
[21] = Stability in mouse plasma assessed as parent compound remaining at 1 ug/ml measured after 45 mins by LC-MS/MS analysis; assay type: ADME, cell-free; settings: at 1 µg/mL, read-out: Stability
[22] = Stability in mouse plasma assessed as parent compound remaining at 1 ug/ml measured after 60 mins by LC-MS/MS analysis; assay type: ADME, cell-free; settings: at 1 µg/mL, read-out: Stability
[23] = Stability in mouse plasma assessed as parent compound remaining at 1 ug/ml measured after 120 mins by LC-MS/MS analysis; assay type: ADME, cell-free; settings: at 1 µg/mL, read-out: Stability
[24] = Stability in mouse plasma assessed as parent compound remaining at 1 ug/ml measured after 240 mins by LC-MS/MS analysis; assay type: ADME, cell-free; settings: at 1 µg/mL, read-out: Stability
[25] = Stability in mouse plasma assessed as parent compound remaining at 1 ug/ml measured after 1440 mins by LC-MS/MS analysis; assay type: ADME, cell-free; settings: at 1 µg/mL, read-out: Stability
[26] = Stability in mouse plasma assessed as parent compound remaining at 5 ug/ml measured after 10 mins by LC-MS/MS analysis; assay type: ADME, cell-free; settings: at 5 µg/mL, read-out: Stability
[27] = Stability in mouse plasma assessed as parent compound remaining at 5 ug/ml measured after 20 mins by LC-MS/MS analysis; assay type: ADME, cell-free; settings: at 5 µg/mL, read-out: Stability
[28] = Stability in mouse plasma assessed as parent compound remaining at 5 ug/ml measured after 30 mins by LC-MS/MS analysis; assay type: ADME, cell-free; settings: at 5 µg/mL, read-out: Stability
[29] = Stability in mouse plasma assessed as parent compound remaining at 5 ug/ml measured after 45 mins by LC-MS/MS analysis; assay type: ADME, cell-free; settings: at 5 µg/mL, read-out: Stability
[30] = Stability in mouse plasma assessed as parent compound remaining at 5 ug/ml measured after 60 mins by LC-MS/MS analysis; assay type: ADME, cell-free; settings: at 5 µg/mL, read-out: Stability
[31] = Stability in mouse plasma assessed as parent compound remaining at 5 ug/ml measured after 120 mins by LC-MS/MS analysis; assay type: ADME, cell-free; settings: at 5 µg/mL, read-out: Stability
[32] = Stability in mouse plasma assessed as parent compound remaining at 5 ug/ml measured after 240 mins by LC-MS/MS analysis; assay type: ADME, cell-free; settings: at 5 µg/mL, read-out: Stability
[33] = Stability in mouse plasma assessed as parent compound remaining at 5 ug/ml measured after 1440 mins by LC-MS/MS analysis; assay type: ADME, cell-free; settings: at 5 µg/mL, read-out: Stability
[34] = Half life in ICR mouse at 10 mg/kg, ip measured after 5 to 24 hrs post administration by LC-MS/MS analysis; assay type: ADME, organism-based; settings: in vivo, time 5-24 hrs
[35] = Tmax in ICR mouse at 10 mg/kg, ip measured after 5 to 24 hrs post administration by LC-MS/MS analysis; assay type: ADME, organism-based; settings: in vivo, time 5-24 hrs
[36] = AUC (0 to infinity) in ICR mouse at 10 mg/kg, ip measured after 5 to 24 hrs post administration by LC-MS/MS analysis; assay type: ADME, organism-based; parameters: time upper 24 hrs, dose 10 mg/kg, time lower 5 hrs, route ip; settings: ICR, in vivo
[37] = AUC (0 to t) in ICR mouse at 10 mg/kg, ip measured after 5 to 24 hrs post administration by LC-MS/MS analysis; assay type: ADME, organism-based; parameters: time 5-24 hrs, dose 10 mg/kg, route ip; settings: ICR, in vivo

Cc1cc2c3c(N)nc(N)nc3ccc2n1Cc1nc2ccccc2s1
MIC (Staphylococcus aureus [1]): 0.5 µg/mL (≈ 1.39 µM)
MIC (Staphylococcus aureus [2]): 0.25 µg/mL (≈ 0.694 µM)
MIC [3]: ≤ 0.004 µg/mL
MIC (Acinetobacter baumannii): 4 µg/mL (≈ 11.1 µM)
MIC (Enterococcus faecalis): 0.5 µg/mL (≈ 1.39 µM)
MIC (Escherichia coli): 1 µg/mL (≈ 2.77 µM)
inhibition [4]: 99.1%
IC50 (MCF7): 430 nM
IC50 (HGC-27): 540 nM
IC50 (HCT-116): 1950 nM
IC50 (HepG2): 180 nM
Activity (EMT6 [5]): Dose-Dependent Effect
Activity [6]: Non-Toxic
Activity [7]: 18.4 g
Activity [8]: 18.3 g
Activity [9]: 14.9 g
Activity [10]: 17.6 g
Activity (EMT6 [11]): 0.44 g
Activity (EMT6 [12]): 0.95 g
Activity (EMT6 [13]): 71%
Activity (EMT6 [14]): 37.7%
half-life at 1 µM [15]: 1.37 h
microsomal CLint at 1 µM [16]: 16.9 µL/min/mg
CLH [17]: 38.3 mL/min/kg
remaining at 10 min, 1 ug/ml [18]: 99.6%
remaining at 20 min, 1 ug/ml [19]: 99.3%
remaining at 0.5 h, 1 ug/ml [20]: 99.1%
remaining at 0.75 h, 1 ug/ml [21]: 98.9%
remaining at 1 h, 1 ug/ml [22]: 98.5%
remaining at 2 h, 1 ug/ml [23]: 98.4%
remaining at 4 h, 1 ug/ml [24]: 98.5%
remaining at 24 h, 1 ug/ml [25]: 97.3%
remaining at 10 min, 5 ug/ml [26]: 99%
remaining at 20 min, 5 ug/ml [27]: 98.6%
remaining at 0.5 h, 5 ug/ml [28]: 98.3%
remaining at 0.75 h, 5 ug/ml [29]: 97.9%
remaining at 1 h, 5 ug/ml [30]: 97.8%
remaining at 2 h, 5 ug/ml [31]: 97.3%
remaining at 4 h, 5 ug/ml [32]: 97.5%
remaining at 24 h, 5 ug/ml [33]: 97%
half-life [34]: 9.81 h
Tmax [35]: 0.83 h
AUC(0-inf) [36]: 2740 ng·h/mL
AUC(0-t) [37]: 2280 ng·h/mL
